Measurements taken from patent US20240075041A1, “TREATMENT OF EOSINOPHILIC DISORDERS WITH AVAPRITINIB” (Blueprint Medicines Corporation, priority 2019, published 2024).
“Also recorded” adds a separate entry of the source.

Tests used:
[1] = tested on: eosinophils; assay: Measurement of absolute eosinophils in Phase 1 clinical trial patients (routine blood test at C1D15); type: in vivo, human; settings: adult patients with AdvSM, oral Compound (I) 30 mg to 400 mg QD, C1D15 (after 2 weeks), baseline absolute eosinophil count >0.5, FIGS. 1-4
Method: The dose range of Compound (I) is between 30 mg and 400 mg. The patients with baseline absolute eosinophil count of >0.5.
The patients with baseline absolute eosinophil count of >0.5.
The dose range of Compound (I) is between 200 mg and 300 mg. The patients with baseline absolute eosinophil count of >0.5.
(§1) This is a Phase 1, open-label, study designed to evaluate the safety, tolerability, PK, PD, and preliminary antineoplastic activity of Compound (I), administered orally, in adult patients with advanced systemic mastocytosis (AdvSM) and relapsed or refractory myeloid malignancies.
(§2) The study consists of 2 parts: dose-escalation (Part 1) and expansion (Part 2). Approximately 25 patients were in Part 1 and approximately 55 patients were in Part 2.
A treatment cycle is 28 days in duration. Patients presented to the study center on C1D1 for the first dose of study drug and serial PK sampling, PD sample collection, vital sign measurement, electrocardiogram (ECG) monitoring, patient general impression of symptom severity (PGIS) and European Organization for Research and Treatment of Cancer Core Quality of Life Questionnaire (EORTC QLQ-C30), safety monitoring and adverse event (AE) recording.
Eosinophils in patients were measured at C1D15 (cycle 1, day 15) via a routine blood test, see, e.g., LaGow B et al., eds. PDR Lab Advisor. A Comprehensive Point-of-Care Guide for Over 600 Lab Tests. 1st ed. […]

[2] = target: KIT D816V (Homo sapiens, UniProt P10721, D816V); assay: Activity against KIT D816V in vitro; type: biochemical
[3] = tested on: tyrosine kinase inhibitor (TKI)-resistant mastocytoma model; assay: TKI-resistant mastocytoma model in vivo
[4] = Toxicology and safety pharmacology studies; type: in vivo; settings: at active doses
[5] = Phase 1 dose escalation in advanced systemic mastocytosis (NCT02561988); type: in vivo; settings: patients with advanced systemic mastocytosis, Phase 1 study, oral
Description: as §1, §2
Patients with AdvSM or a relapsed or refractory myeloid malignancy were enrolled in the dose escalation part of the study. A 3+3 dose-escalation design using cohorts of 3 patients were employed.
The first cohort of patients received Compound (I) at a starting dose of 30 mg once daily (QD). Dose escalation proceeded at increments up to 100% until ≥1 patient treated at a given dose level has a ≥Grade 2 non-hematologic AE or a Grade 4 hematologic AE and the AE (non-hematologic or hematologic) was not clearly attributable to a cause other than Compound (I) or the dose exceeds the highest dose determined to be safe in the ongoing Compound (I) first-in-human (FIH) study in GIST, BLU-285-1101.
Three patients were enrolled initially in each cohort and an additional 3 patients (for a total of 6) were enrolled when the cohort requires expansion due to dose-limiting toxicity (DLT). […]

Chain of KIT D816V (P10721 26-976 D816V): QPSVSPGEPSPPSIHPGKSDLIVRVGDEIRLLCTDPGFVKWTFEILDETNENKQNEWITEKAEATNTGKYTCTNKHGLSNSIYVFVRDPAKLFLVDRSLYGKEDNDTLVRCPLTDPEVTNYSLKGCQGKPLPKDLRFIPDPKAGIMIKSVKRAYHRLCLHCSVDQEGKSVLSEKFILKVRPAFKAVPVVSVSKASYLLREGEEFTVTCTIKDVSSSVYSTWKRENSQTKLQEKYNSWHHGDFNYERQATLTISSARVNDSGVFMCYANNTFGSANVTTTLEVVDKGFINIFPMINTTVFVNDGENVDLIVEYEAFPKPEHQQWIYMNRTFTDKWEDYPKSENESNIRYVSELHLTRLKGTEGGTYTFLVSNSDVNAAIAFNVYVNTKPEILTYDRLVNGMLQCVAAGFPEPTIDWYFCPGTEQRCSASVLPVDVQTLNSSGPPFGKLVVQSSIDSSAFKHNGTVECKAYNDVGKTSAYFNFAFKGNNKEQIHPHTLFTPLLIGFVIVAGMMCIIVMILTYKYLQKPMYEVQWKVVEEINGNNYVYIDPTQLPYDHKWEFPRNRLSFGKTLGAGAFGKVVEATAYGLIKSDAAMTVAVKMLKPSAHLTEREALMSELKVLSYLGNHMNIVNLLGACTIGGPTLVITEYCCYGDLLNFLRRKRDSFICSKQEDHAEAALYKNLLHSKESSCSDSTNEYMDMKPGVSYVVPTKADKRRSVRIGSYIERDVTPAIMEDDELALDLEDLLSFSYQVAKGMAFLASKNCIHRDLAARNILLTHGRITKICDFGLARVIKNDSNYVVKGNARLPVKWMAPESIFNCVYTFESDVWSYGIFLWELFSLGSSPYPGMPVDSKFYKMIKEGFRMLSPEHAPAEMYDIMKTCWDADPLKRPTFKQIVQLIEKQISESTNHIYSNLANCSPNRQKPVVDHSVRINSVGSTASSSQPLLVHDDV

activity against KIT D816V in vitro [2]: potent and selective activity
recommended Phase 2 dose (RP2D) [5]: 300 mg once a day (QD)
Compound: Cn1cc(-c2cc3c(N4CCN(c5ncc([C@@](C)(N)c6ccc(F)cc6)cn5)CC4)ncnn3c2)cn1 [Compound (I), (S)-1-(4-fluorophenyl)-1-(2-(4-(6-(1-methyl-1H-pyrazol-4-yl)pyrrolo[2,1-f][1,2,4]triazin-4-yl)piperazin-yl)pyrimidin-5-yl)ethan-1-amine]
absolute eosinophil changes from baseline levels [1]: significantly decreases number of absolute eosinophils; also recorded: effectively reduces eosinophil levels
growth inhibition in TKI-resistant mastocytoma model [3]: robust growth inhibition
tolerability [4]: tolerability at active doses
